Reference: ChEMBL document CHEMBL1268928, “Design and synthesis of novel pyrimidine hydroxamic acid inhibitors of histone deacetylases” (Bioorg Med Chem Lett, 2010)

What was measured:
HeLa = experiment: cells; format: functional; details: Homo sapiens, 72 h
Description: Growth inhibition of human HeLa cells after 72 hrs by SRB assay

HCT-116 = experiment: cells; format: functional; details: Homo sapiens, HCT-116, 72 h
Description: Growth inhibition of human HCT116 cells after 72 hrs by SRB assay

U-937 = experiment: cells; format: functional; details: Homo sapiens, U-937, 72 h
Description: Growth inhibition of human U937 cells after 72 hrs by SRB assay

Histone deacetylase = experiment: Inhibition of HDAC in human HeLa cell nuclear extracts by fluorimetric assay; format: protein assay
HuT78 = experiment: cells; format: functional; details: Homo sapiens, HuT78, 72 h
Description: Growth inhibition of human HUT78 cells after 72 hrs by SRB assay

Row | Structure (SMILES) | GI50 (HeLa) | GI50 (HCT-116) | GI50 (U-937) | IC50 (Histone deacetylase) | GI50 (HuT78)
1 | O=C(NO)c1cnc(N2C[C@H]3CN(Cc4ccc(Cl)cc4)C[C@H]3C2)nc1 | 690 nM | 490 nM | 230 nM | 42 nM | 190 nM
2 | O=C(NO)c1ccc(N2C[C@H]3CN(Cc4ccc5ccccc5c4)C[C@H]3C2)nc1 | 1260 nM | 700 nM | 450 nM | 45 nM | 340 nM
3 | O=C(NO)c1cnc(N2C[C@H]3CN(C(=O)c4ccc5ccccc5c4)C[C@H]3C2)nc1 | 210 nM | 590 nM | 390 nM | 12 nM | 200 nM

More lines, in order of falling GI50 (HeLa), values ahead:

Row | GI50 (HeLa) | GI50 (HCT-116) | GI50 (U-937) | IC50 (Histone deacetylase) | Structure (SMILES) | GI50 (HuT78)
4 | 3950 nM | 1800 nM | 900 nM | 122 nM | O=C(NO)c1cnc(N2C[C@H]3CN(C(=O)CCCOc4ccccc4)C[C@H]3C2)nc1 | 800 nM
5 | 950 nM | 900 nM | 550 nM | 95 nM | COc1ccc(CN2C[C@@H]3CN(c4ncc(C(=O)NO)cn4)C[C@@H]3C2)cc1 | 290 nM
